Experimental data reported in patent US11124537B2, “Inhibitors of glucocorticoid receptor” (ORIC Pharmaceuticals, Inc., priority 2015, dated 2021).

The molecules below were run against GR (Homo sapiens (Human), UniProt P04150) (assay: In Vitro GR Luciferase Reporter Assay). Settings: CHO-K1-GR-MMTV-Luc reporter cells, antagonist assay, 10 nM Dexamethasone, 18-24 hours.
GR, sequence (P04150 whole entry): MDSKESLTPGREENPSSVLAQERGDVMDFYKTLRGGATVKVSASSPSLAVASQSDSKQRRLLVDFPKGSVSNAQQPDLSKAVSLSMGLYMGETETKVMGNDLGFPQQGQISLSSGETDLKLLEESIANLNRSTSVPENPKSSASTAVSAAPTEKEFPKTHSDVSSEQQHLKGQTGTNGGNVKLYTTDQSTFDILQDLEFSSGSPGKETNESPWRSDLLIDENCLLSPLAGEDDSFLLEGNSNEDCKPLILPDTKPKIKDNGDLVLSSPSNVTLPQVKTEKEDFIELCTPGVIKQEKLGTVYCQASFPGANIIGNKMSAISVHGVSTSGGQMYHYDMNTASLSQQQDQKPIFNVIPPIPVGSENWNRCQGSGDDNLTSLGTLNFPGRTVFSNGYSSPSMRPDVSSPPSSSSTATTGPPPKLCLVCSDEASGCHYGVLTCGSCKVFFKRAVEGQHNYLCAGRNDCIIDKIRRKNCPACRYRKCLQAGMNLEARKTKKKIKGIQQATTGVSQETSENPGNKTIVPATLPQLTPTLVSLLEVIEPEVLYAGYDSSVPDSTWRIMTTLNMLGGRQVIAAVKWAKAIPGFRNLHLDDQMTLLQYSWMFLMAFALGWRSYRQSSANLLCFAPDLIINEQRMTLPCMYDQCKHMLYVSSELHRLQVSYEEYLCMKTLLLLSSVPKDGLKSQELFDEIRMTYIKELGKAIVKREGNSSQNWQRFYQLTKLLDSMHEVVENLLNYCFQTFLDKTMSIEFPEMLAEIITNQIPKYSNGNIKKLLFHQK
Format: cell-based
Text: Example 4: In Vitro GR Luciferase Reporter Assay
Cell Line: CHO-K1-GR-MMTV-Luc reporter cells
Culture Media: DMEM (with phenol red)+10% FBS
Assay Media: DMEM (without phenol red)+10% CSS
Culture CHO-K1-GR-MMTV-Luc reporter cells in 15 cm plates in Culture Media at conditions less than 90% confluence.
Prepare 200×DMSO 1:5 serial dilutions of control and test compounds in 96-well non-sterile V bottom plate in DMSO, 8 serial dilutions for each compound.
Prepare 5× Assay Media diluted compound serial dilutions in 96-well non-sterile V bottom plate: Add 97.5 uL/well of Assay Media into 96-well then add 2.5 ul of 200× concentration of compounds and mix well.
Seed cells for Antagonist Assay: […] CHO-K1-GR-MMTV-Luc reporter cells were seeded in a Corning 3707 flat clear bottom 384-well white TC plate in 20 ul of Assay Media containing 12.5 nM Dexamethasone (final concentration=10 nM).
Add compounds: 5 ul of assay media diluted compounds were added to appropriate wells and followed a quick spin (1000 rpm, 10 sec) to bring media and cells to the bottom of plate. The plates were covered with SealMate film to avoid evaporation and placed in 37° C. incubator for approximately 18-24 hours.
Read plates: Equilibrate appropriate amount of Promega OneGlo luciferase reagent to room temperature. Remove the plates from incubator and add 25 uL of OneGlo reagent/well by multiple channel pipette and read the plates with Tecan F500 luminometer within 3 minutes.
The ability of the compounds disclosed herein to inhibit GR activity was quantified and the respective IC50 value was determined. Table 3 provides the cellular IC50 values of various substituted steroidal compounds disclosed herein.
An IC50 of at most 100 nM was found for `CC(C)(C)C#C[C@]1(O)CC[C@H]2[C@@H]3CCC4=CC(=O)CCC4=C3[C@@H](c3ccc(C4CC4)cc3)C[C@@]21C` in this work.
An IC50 of at most 100 nM was found for `CCc1ccc([C@H]2C[C@@]3(C)[C@@H](CC[C@@]3(O)C#CC(C)(C)C)[C@@H]3CCC4=CC(=O)CCC4=C32)cc1` in this work.
An IC50 of at most 100 nM was found for `CC(C)N(C)c1ccc([C@H]2C[C@@]3(C)[C@@H](CC[C@@]3(O)C#CC(C)(C)C)[C@@H]3CCC4=CC(=O)CCC4=C32)cc1` in this work.
An IC50 of at most 100 nM was found for `CCc1ccc([C@H]2C[C@@]3(C)[C@@H](CC[C@@]3(O)C#Cc3ccccc3)[C@@H]3CCC4=CC(=O)CCC4=C32)cc1` in this work.
An IC50 of at most 100 nM was found for `Cc1ccc([C@H]2C[C@@]3(C)[C@@H](CC[C@@]3(O)C#CC(C)(C)C)[C@@H]3CCC4=CC(=O)CCC4=C32)cc1` in this work.
An IC50 of at most 100 nM was found for `COc1ccc([C@H]2C[C@@]3(C)[C@@H](CC[C@@]3(O)C#CC(C)(C)C)[C@@H]3CCC4=CC(=O)CCC4=C32)cc1` in this work.
An IC50 of at most 100 nM was found for `CC(C)Oc1ccc([C@H]2C[C@@]3(C)[C@@H](CC[C@@]3(O)C#CC(C)(C)C)[C@@H]3CCC4=CC(=O)CCC4=C32)cc1` in this work.
An IC50 of at most 100 nM was found for `CC(C)(C)C#C[C@]1(O)CC[C@H]2[C@@H]3CCC4=CC(=O)CCC4=C3[C@@H](c3ccc(NCC4CC4)cc3)C[C@@]21C` in this work.
An IC50 of over 100 nM was found for `CN(CC1CC1)c1ccc([C@H]2C[C@@]3(C)[C@@H](CC[C@@]3(O)C#CC(C)(C)C)[C@@H]3CCC4=CC(=O)CCC4=C32)cc1` in this work.
An IC50 of over 100 nM was found for `CN(C)c1ccc([C@H]2C[C@@]3(C)[C@@H](CC[C@@]3(O)C#CCO)[C@@H]3CCC4=CC(=O)CCC4=C32)cc1` in this work.
An IC50 of over 100 nM was found for `CC(C)Oc1cccc([C@H]2C[C@@]3(C)[C@@H](CC[C@@]3(O)C#CC(F)(F)F)[C@@H]3CCC4=CC(=O)CCC4=C32)c1` in this work.
An IC50 of at most 100 nM was found for `COc1ccc([C@H]2C[C@@]3(C)[C@@H](CC[C@@]3(O)C#CC(C)C)[C@@H]3CCC4=CC(=O)CCC4=C32)cc1F` in this work.
An IC50 of at most 100 nM was found for `CC(C)C#C[C@]1(O)CC[C@H]2[C@@H]3CCC4=CC(=O)CCC4=C3[C@@H](c3ccc(N(C)C)c(F)c3)C[C@@]21C` in this work.
An IC50 of at most 100 nM was found for `Cc1ccc([C@H]2C[C@@]3(C)[C@@H](CC[C@@]3(O)C#CC3CC3)[C@@H]3CCC4=CC(=O)CCC4=C32)cc1F` in this work.
An IC50 of at most 100 nM was found for `Cc1ccc([C@H]2C[C@@]3(C)[C@@H](CC[C@@]3(O)C#CC(C)C)[C@@H]3CCC4=CC(=O)CCC4=C32)cc1F` in this work.
An IC50 of at most 100 nM was found for `Cc1ccc([C@H]2C[C@@]3(C)[C@@H](CC[C@@]3(O)C#CC(C)(C)C)[C@@H]3CCC4=CC(=O)CCC4=C32)cc1C` in this work.
An IC50 of at most 100 nM was found for `Cc1ccc([C@H]2C[C@@]3(C)[C@@H](CC[C@@]3(O)C#CC(C)(C)C)[C@@H]3CCC4=CC(=O)CCC4=C32)cc1F` in this work.
An IC50 of over 100 nM was found for `CN(C)c1cc([C@H]2C[C@@]3(C)[C@@H](CC[C@@]3(O)C#CC(F)(F)F)[C@@H]3CCC4=CC(=O)CCC4=C32)ccc1Cl` in this work.
An IC50 of at most 100 nM was found for `Cc1c(F)cc([C@H]2C[C@@]3(C)[C@@H](CC[C@@]3(O)C#CC3CC3)[C@@H]3CCC4=CC(=O)CCC4=C32)cc1F` in this work.
An IC50 of over 100 nM was found for `COc1cc([C@H]2C[C@@]3(C)[C@@H](CC[C@@]3(O)C#CC(C)(C)C)[C@@H]3CCC4=CC(=O)CCC4=C32)ccc1N(C)C` in this work.
An IC50 of over 100 nM was found for `Cc1ccc([C@H]2C[C@@]3(C)[C@@H](CC[C@@]3(O)C#CC(F)(F)F)[C@@H]3CCC4=CC(=O)CCC4=C32)cc1F` in this work.
An IC50 of at most 100 nM was found for `CCN(C)c1cc(F)c([C@H]2C[C@@]3(C)[C@@H](CC[C@@]3(O)C#CC3CC3)[C@@H]3CCC4=CC(=O)CCC4=C32)c(F)c1` in this work.
An IC50 of at most 100 nM was found for `CN(C)c1cc(F)c([C@H]2C[C@@]3(C)[C@@H](CC[C@@]3(O)C#CC(F)(F)F)[C@@H]3CCC4=CC(=O)CCC4=C32)c(F)c1` in this work.
An IC50 of at most 100 nM was found for `CC(C)C#C[C@]1(O)CC[C@H]2[C@@H]3CCC4=CC(=O)CCC4=C3[C@@H](c3c(F)cc(N(C)C)cc3F)C[C@@]21C` in this work.
An IC50 of at most 100 nM was found for `CCN(C)c1cc(F)c([C@H]2C[C@@]3(C)[C@@H](CC[C@@]3(O)C#CC(C)C)[C@@H]3CCC4=CC(=O)CCC4=C32)c(F)c1` in this work.
An IC50 of at most 100 nM was found for `CCc1cc(F)c([C@H]2C[C@@]3(C)[C@@H](CC[C@@]3(O)C#CC(C)C)[C@@H]3CCC4=CC(=O)CCC4=C32)c(F)c1` in this work.
An IC50 of at most 100 nM was found for `CC(C)(C)C#C[C@]1(O)CC[C@H]2[C@@H]3CCC4=CC(=O)CCC4=C3[C@@H](c3cc(F)c(-c4cncnc4)cc3F)C[C@@]21C` in this work.
An IC50 of at most 100 nM was found for `CN(C)c1cc(F)c([C@H]2C[C@@]3(C)[C@@H](CC[C@@]3(O)C#CC(C)(C)C)[C@@H]3CCC4=CC(=O)CCC4=C32)c(F)c1` in this work.
An IC50 of at most 100 nM was found for `CC(C)C#C[C@]1(O)CC[C@H]2[C@@H]3CCC4=CC(=O)CCC4=C3[C@@H](c3cc(F)c(N(C)C)cc3F)C[C@@]21C` in this work.
An IC50 of at most 100 nM was found for `CN(C)c1c(F)cc([C@H]2C[C@@]3(C)[C@@H](CC[C@@]3(O)C#CC3CC3)[C@@H]3CCC4=CC(=O)CCC4=C32)cc1F` in this work.
An IC50 of at most 100 nM was found for `CN(C)c1ccc([C@H]2C[C@@]3(C)[C@@H](CC[C@@]3(O)C#CC(C)(C)C)[C@@H]3CCC4=CC(=O)CCC4=C32)c(F)c1F` in this work.
An IC50 of at most 100 nM was found for `CCN(CC)c1cc(F)c([C@H]2C[C@@]3(C)[C@@H](CC[C@@]3(O)C#CC(C)C)[C@@H]3CCC4=CC(=O)CCC4=C32)c(F)c1` in this work.
An IC50 of at most 100 nM was found for `CN(C)c1cc(F)c([C@H]2C[C@@]3(C)[C@@H](CC[C@@]3(O)C#Cc3ccccc3)[C@@H]3CCC4=CC(=O)CCC4=C32)c(F)c1` in this work.
An IC50 of at most 100 nM was found for `CN(C)c1cc(F)c([C@H]2C[C@@]3(C)[C@@H](CC[C@@]3(O)C#CC3CC3)[C@@H]3CCC4=CC(=O)CCC4=C32)cc1F` in this work.
An IC50 of at most 100 nM was found for `CC(C)C#C[C@]1(O)CC[C@H]2[C@@H]3CCC4=CC(=O)CCC4=C3[C@@H](c3ccc(N(C)C)c(F)c3F)C[C@@]21C` in this work.
An IC50 of at most 100 nM was found for `Cc1c(F)cc([C@H]2C[C@@]3(C)[C@@H](CC[C@@]3(O)C#CC(C)C)[C@@H]3CCC4=CC(=O)CCC4=C32)cc1F` in this work.
An IC50 of at most 100 nM was found for `CC(C)C#C[C@]1(O)CC[C@H]2[C@@H]3CCC4=CC(=O)CCC4=C3[C@@H](c3c(F)cc(N4CCCC4)cc3F)C[C@@]21C` in this work.
An IC50 of at most 100 nM was found for `CN(C)c1c(F)cc([C@H]2C[C@@]3(C)[C@@H](CC[C@@]3(O)C#CC(C)(C)C)[C@@H]3CCC4=CC(=O)CCC4=C32)cc1F` in this work.
An IC50 of at most 100 nM was found for `CC(C)(C)C#C[C@]1(O)CC[C@H]2[C@@H]3CCC4=CC(=O)CCC4=C3[C@@H](c3cc(F)c(-c4ccncc4)cc3F)C[C@@]21C` in this work.
An IC50 of over 100 nM was found for `Cc1ccc(-c2cc(F)c([C@H]3C[C@@]4(C)[C@@H](CC[C@@]4(O)C#CC(C)(C)C)[C@@H]4CCC5=CC(=O)CCC5=C43)cc2F)cn1` in this work.
An IC50 of over 100 nM was found for `Cc1c(F)cc([C@H]2C[C@@]3(C)[C@@H](CC[C@@]3(O)C#CC(F)(F)F)[C@@H]3CCC4=CC(=O)CCC4=C32)cc1F` in this work.
An IC50 of over 100 nM was found for `Cc1c(F)cc([C@H]2C[C@@]3(C)[C@@H](CC[C@@]3(O)C#Cc3ccccn3)[C@@H]3CCC4=CC(=O)CCC4=C32)cc1F` in this work.
An IC50 of over 100 nM was found for `CN(C)c1c(F)cc([C@H]2C[C@@]3(C)[C@@H](CC[C@@]3(O)C#CC(F)(F)F)[C@@H]3CCC4=CC(=O)CCC4=C32)cc1F` in this work.
An IC50 of over 100 nM was found for `Cc1c(F)cc([C@H]2C[C@@]3(C)[C@@H](CC[C@@]3(O)C#Cc3ccc(N(C)C)cc3)[C@@H]3CCC4=CC(=O)CCC4=C32)cc1F` in this work.
An IC50 of over 100 nM was found for `Cc1c(F)cc([C@H]2C[C@@]3(C)[C@@H](CC[C@@]3(O)C#CC(C)(C)C)[C@@H]3CCC4=CC(=O)CCC4=C32)cc1F` in this work.
An IC50 of over 100 nM was found for `CN(C)c1ccc([C@H]2C[C@@]3(C)[C@@H](CC[C@@]3(O)C#Cc3ccc(C(C)(C)C)cc3)[C@@H]3CCC4=CC(=O)CCC4=C32)cc1` in this work.
An IC50 of at most 100 nM was found for `CN(C)c1ccc([C@H]2C[C@@]3(C)[C@@H](CC[C@@]3(O)C#Cc3ccc(C#N)cc3)[C@@H]3CCC4=CC(=O)CCC4=C32)cc1` in this work.
An IC50 of at most 100 nM was found for `CC(C)N(C)c1ccc([C@H]2C[C@@]3(C)[C@@H](CC[C@@]3(O)C#CC3(C)COC3)[C@@H]3CCC4=CC(=O)CCC4=C32)cc1` in this work.
An IC50 of at most 100 nM was found for `COC(C)(C)C#C[C@]1(O)CC[C@H]2[C@@H]3CCC4=CC(=O)CCC4=C3[C@@H](c3ccc(C(C)(C)C)cc3)C[C@@]21C` in this work.
An IC50 of at most 100 nM was found for `CC(C)N(C)c1ccc([C@H]2C[C@@]3(C)[C@@H](CC[C@@]3(O)C#Cc3ccc(S(C)(=O)=O)cc3)[C@@H]3CCC4=CC(=O)CCC4=C32)cc1` in this work.
An IC50 of over 100 nM was found for `CC(C)(C)C#C[C@]1(O)CC[C@H]2[C@@H]3CCC4=CC(=O)CCC4=C3[C@@H](c3ccc(N)cc3)C[C@@]21C` in this work.
An IC50 of over 100 nM was found for `CCN(c1ccc([C@H]2C[C@@]3(C)[C@@H](CC[C@@]3(O)C#CC(C)(C)C)[C@@H]3CCC4=CC(=O)CCC4=C32)cc1)C(C)C` in this work.
An IC50 of at most 100 nM was found for `CC(C)(C)C#C[C@]1(O)CC[C@H]2[C@@H]3CCC4=CC(=O)CCC4=C3[C@@H](c3ccc(C(C)(C)CO)cc3)C[C@@]21C` in this work.
An IC50 of at most 100 nM was found for `C[C@H]1CCCN1c1ccc([C@H]2C[C@@]3(C)[C@@H](CC[C@@]3(O)C#CC(C)(C)C)[C@@H]3CCC4=CC(=O)CCC4=C32)cc1` in this work.
